Assay results taken from paper doi:10.64898/2025.12.31.695415v1, “Correlated dynamics, reactive conformations and non-Arrhenius behaviour in the temperature-dependence of enzyme activity: triosephosphate isomerase” (biorxiv, 2025).

Target: T1, meso-TIM (Saccharomyces cerevisiae, UniProt P00942)
T1 construct: gene TPI1; N-terminal His6 tag, pET28b, E. coli BL21(DE3); dimer; PDB 1NEY is the simulation model
T1 sequence (P00942 2-248): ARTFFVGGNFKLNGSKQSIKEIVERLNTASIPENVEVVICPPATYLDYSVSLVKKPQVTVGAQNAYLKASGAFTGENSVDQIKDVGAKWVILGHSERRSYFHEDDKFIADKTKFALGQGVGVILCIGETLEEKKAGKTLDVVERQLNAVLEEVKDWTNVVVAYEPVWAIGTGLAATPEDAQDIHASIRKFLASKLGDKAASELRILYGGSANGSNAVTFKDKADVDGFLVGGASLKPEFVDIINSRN
Assay: stopped-flow, GAPD-coupled assay, […] nm
Format: biochemical
Details: 50 mM HEPES pH 7.4, 150 mM NaCl, 10 mM MgCl2, 2.5 mM (NH4)2SO4; two temperatures

With O=C(CO)COP(=O)(O)O [dihydroxyacetone phosphate] the Km was “substrate binding kinetics were determined at two temperatures”.
